The values that follow come from patent publication US8252507B2, “Photoactive compound and photosensitive resin composition comprising the same” (LG Chem, Ltd., priority 2008, dated 2012).

This data set can be described thus: Solubility measurement in organic solvents. The format is physicochemical. The following applies: for Solubility in 3-MBA: amount (g) of compound completely dissolved in 3-methoxybutyl acetate; for Solubility in CH: amount (g) of compound completely dissolved in cyclohexanone; for Solubility in DPM: amount (g) of compound completely dissolved in dipropylene glycol methyl ether; for Solubility in EEP: amount (g) of compound completely dissolved in ethyl-3-ethoxy propionate; for Solubility in PGMEA: amount (g) of compound completely dissolved in propylene glycol methyl ether acetate. On the procedure: The solubilities of Irgacure OXE-02 (Ciba Specialty Chemical) of Comparative Example 1, the compounds of Comparative Examples 2-3, and the compound of Example 1, which contains oxime ester moieties, were measured in various solvents, including propylene glycol methyl ether acetate (PGMEA), dipropylene glycol methyl ether (DPM), 3-methoxybutyl acetate (MBA), ethyl-3-ethoxy propionate (EEP) and cyclohexanone (CH). The solubility of each of the compounds was determined by measuring the amount (g) of the compound completely dissolved in the corresponding solvent.

The structures appear in SMILES notation.

On to `CCn1c2ccc(C(=O)c3ccccc3C)cc2c2cc(/C(C)=N/OC(C)=O)ccc21` [Comparative Example 1], for which the “Solubility in 3-MBA” value came to 10 g, the “Solubility in CH” value is on record as 40 g, the “Solubility in DPM” value is given as 5 g and the “Solubility in EEP” value was 10 g. Moreover, the “Solubility in PGMEA” value stood at 12 g.

Take `CC(=O)O/N=C/c1ccc(-c2ccc(-c3nc(C(Cl)(Cl)Cl)nc(C(Cl)(Cl)Cl)n3)cc2)cc1` [Comparative Example 3, 2,4-trichloromethyl-(4′-formylbiphenylacetoxime)-6-triazine]: the “Solubility in 3-MBA” value came to 5 g, the “Solubility in CH” value was 20 g, the “Solubility in DPM” value came out at 2 g and the “Solubility in EEP” value was 5 g. Besides, the “Solubility in PGMEA” value came out at 7 g.

For the compound `CCn1c2ccc(C(=O)c3ccc(OCC4COC(C)(C)O4)cc3)cc2c2cc(/C(CC(c3ccccc3)N(OC(C)=O)C(C)=O)=N/OC(C)=O)ccc21` (centres unmarked) [Example 1], the “Solubility in 3-MBA” value is 13 g, the “Solubility in CH” value is recorded as 60 g, the “Solubility in DPM” value stood at 7 g and the “Solubility in EEP” value is 15 g. Further, the “Solubility in PGMEA” value is 20 g.

For the compound `CC(=O)O/N=C(\C)c1ccc(-c2nc(C(Cl)(Cl)Cl)nc(C(Cl)(Cl)Cl)n2)cc1` [Comparative Example 2, 2,4-trichloromethyl-(4′-acetylphenylacetoxime)-6-triazine], the “Solubility in 3-MBA” value worked out at 5 g, the “Solubility in CH” value was 25 g, the “Solubility in DPM” value is on record as 3 g and the “Solubility in EEP” value came to 6 g. For the same compound, the “Solubility in PGMEA” value is 7 g.
